Results taken from ChEMBL document CHEMBL1201862, “PubChem BioAssay data set” (2004).
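Growth conditions: 96-well plates. Treatment: test compound, 48 hours, 5 concentrations. Analysis: linear interpolation between bracketing concentrations; unreached endpoints set to highest concentration. Abbreviation: GI50, concentration required for 50% inhibition of growth.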 Activity calls are given as the source filed them. Rule as the data show it: active = GI50 up to about 1.1 µM and inactive = higher.

What was measured:
Test in all cases: NCI anticancer screen, dose series, 48 h
HCT-15 = tested on: HCT-15
PC-3 = tested on: PC-3
SK-MEL-5 = tested on: SK-MEL-5
SK-OV-3 = tested on: SK-OV-3
SF-268 = tested on: SF-268
UACC-257 = tested on: UACC-257
NCI/ADR-RES = tested on: NCI/ADR-RES
786-0 = tested on: 786-0
EKVX = tested on: EKVX
COLO 205 = tested on: COLO 205
OVCAR-5 = tested on: OVCAR-5
HCC 2998 = tested on: HCC 2998
NCI-H460 = tested on: NCI-H460
SNB-75 = tested on: SNB-75
LOX IMVI = tested on: LOX IMVI
SR = tested on: SR
K562 = tested on: K562
UACC-62 = tested on: UACC-62
NCI-H226 = tested on: NCI-H226
A549 = tested on: A549
Hs-578T = tested on: Hs-578T
HOP-92 = tested on: HOP-92
DU-145 = tested on: DU-145
RXF 393 = tested on: RXF 393
SN12C = tested on: SN12C
HCT-116 = tested on: HCT-116
M14 = tested on: M14
NCI-H23 = tested on: NCI-H23
RPMI-8226 = tested on: RPMI-8226
Malme-3M = tested on: Malme-3M
SNB-19 = tested on: SNB-19
CCRF-CEM = tested on: CCRF-CEM
MDA-MB-435 = tested on: MDA-MB-435
TK-10 = tested on: TK-10
SF-539 = tested on: SF-539
UO-31 = tested on: UO-31
HT-29 = tested on: HT-29
MCF7 = tested on: MCF7
SF-295 = tested on: SF-295
SW-620 = tested on: SW-620
BT-549 = tested on: BT-549
KM12 = tested on: KM12
MOLT-4 = tested on: MOLT-4
OVCAR-8 = tested on: OVCAR-8
U-251 = tested on: U-251
A498 = tested on: A498
OVCAR-3 = tested on: OVCAR-3
MDA-MB-231 = tested on: MDA-MB-231
MDA-N = tested on: MDA-N
IGROV-1 = tested on: IGROV-1
HL-60 = tested on: HL-60
ACHN = tested on: ACHN
T47D = tested on: T47D
CAKI-1 = tested on: CAKI-1
OVCAR-4 = tested on: OVCAR-4
SK-MEL-28 = tested on: SK-MEL-28
SK-MEL-2 = tested on: SK-MEL-2
HOP-62 = tested on: HOP-62
NCI-H522 = tested on: NCI-H522

Compound: OC1CSc2nc3ccccc3n2C1 (stereo not given)
- GI50 (HCT-15): > 100 µM
- GI50 (PC-3): > 100 µM (inactive)
- GI50 (SK-MEL-5): > 100 µM (inactive)
- GI50 (SK-OV-3): > 100 µM (inactive)
- GI50 (SF-268): > 100 µM (inactive)
- GI50 (UACC-257): > 100 µM (inactive)
- GI50 (NCI/ADR-RES): > 100 µM (inactive)
- GI50 (786-0): > 100 µM (inactive)
- GI50 (EKVX): > 100 µM (inactive)
- GI50 (COLO 205): > 100 µM (inactive)
- GI50 (OVCAR-5): > 100 µM (inactive)
- GI50 (HCC 2998): > 100 µM (inactive)
- GI50 (NCI-H460): > 100 µM (inactive)
- GI50 (SNB-75): 17.9 µM (inactive)
- GI50 (LOX IMVI): > 100 µM (inactive)
- GI50 (SR): > 100 µM (inactive)
- GI50 (K562): > 100 µM (inactive)
- GI50 (UACC-62): > 100 µM (inactive)
- GI50 (NCI-H226): > 100 µM (inactive)
- GI50 (A549): > 100 µM (inactive)
- GI50 (Hs-578T): 23.8 µM (inactive)
- GI50 (HOP-92): > 100 µM (inactive)
- GI50 (DU-145): > 100 µM (inactive)
- GI50 (RXF 393): > 100 µM (inactive)
- GI50 (SN12C): > 100 µM (inactive)
- GI50 (HCT-116): > 100 µM (inactive)
- GI50 (M14): > 100 µM (inactive)
- GI50 (NCI-H23): > 100 µM (inactive)
- GI50 (RPMI-8226): > 100 µM (inactive)
- GI50 (Malme-3M): > 100 µM (inactive)
- GI50 (SNB-19): > 100 µM (inactive)
- GI50 (CCRF-CEM): > 100 µM (inactive)
- GI50 (MDA-MB-435): > 100 µM (inactive)
- GI50 (TK-10): > 100 µM (inactive)
- GI50 (SF-539): > 100 µM (inactive)
- GI50 (UO-31): > 100 µM (inactive)
- GI50 (HT-29): > 100 µM (inactive)
- GI50 (MCF7): > 100 µM (inactive)
- GI50 (SF-295): > 100 µM (inactive)
- GI50 (SW-620): > 100 µM (inactive)
- GI50 (BT-549): > 100 µM (inactive)
- GI50 (KM12): > 100 µM (inactive)
- GI50 (MOLT-4): > 100 µM (inactive)
- GI50 (OVCAR-8): > 100 µM (inactive)
- GI50 (U-251): > 100 µM (inactive)
- GI50 (A498): > 100 µM (inactive)
- GI50 (OVCAR-3): > 100 µM (inactive)
- GI50 (MDA-MB-231): > 100 µM (inactive)
- GI50 (MDA-N): > 100 µM (inactive)
- GI50 (IGROV-1): > 100 µM (inactive)
- GI50 (HL-60): > 100 µM (inactive)
- GI50 (ACHN): > 100 µM (inactive)
- GI50 (T47D): > 100 µM (inactive)
- GI50 (CAKI-1): > 100 µM (inactive)

Compound: O=S(=O)(O)C(c1ccccc1)C(O)c1ccccc1 (stereo not given)
- GI50 (HCT-15): > 100 µM
- GI50 (PC-3): > 100 µM (inactive)
- GI50 (SK-MEL-5): > 100 µM (inactive)
- GI50 (SK-OV-3): > 100 µM (inactive)
- GI50 (SF-268): > 100 µM (inactive)
- GI50 (UACC-257): 46.5 µM (inactive)
- GI50 (NCI/ADR-RES): > 100 µM (inactive)
- GI50 (786-0): > 100 µM (inactive)
- GI50 (EKVX): > 100 µM (inactive)
- GI50 (COLO 205): > 100 µM (inactive)
- GI50 (OVCAR-5): > 100 µM (inactive)
- GI50 (NCI-H460): > 100 µM (inactive)
- GI50 (SNB-75): > 100 µM (inactive)
- GI50 (LOX IMVI): > 100 µM (inactive)
- GI50 (SR): > 100 µM (inactive)
- GI50 (K562): > 100 µM (inactive)
- GI50 (UACC-62): > 100 µM (inactive)
- GI50 (NCI-H226): > 100 µM (inactive)
- GI50 (A549): > 100 µM (inactive)
- GI50 (Hs-578T): > 100 µM (inactive)
- GI50 (OVCAR-4): > 100 µM (inactive)
- GI50 (HOP-92): > 100 µM (inactive)
- GI50 (DU-145): > 100 µM (inactive)
- GI50 (RXF 393): > 100 µM (inactive)
- GI50 (SK-MEL-28): > 100 µM (inactive)
- GI50 (SN12C): > 100 µM (inactive)
- GI50 (HCT-116): > 100 µM (inactive)
- GI50 (M14): > 100 µM (inactive)
- GI50 (NCI-H23): > 100 µM (inactive)
- GI50 (RPMI-8226): > 100 µM (inactive)
- GI50 (Malme-3M): > 100 µM (inactive)
- GI50 (SNB-19): > 100 µM (inactive)
- GI50 (CCRF-CEM): > 100 µM (inactive)
- GI50 (SK-MEL-2): > 100 µM (inactive)
- GI50 (MDA-MB-435): > 100 µM (inactive)
- GI50 (TK-10): > 100 µM (inactive)
- GI50 (UO-31): > 100 µM (inactive)
- GI50 (HT-29): > 100 µM (inactive)
- GI50 (MCF7): > 100 µM (inactive)
- GI50 (SF-295): > 100 µM (inactive)
- GI50 (SW-620): > 100 µM (inactive)
- GI50 (BT-549): > 100 µM (inactive)
- GI50 (KM12): > 100 µM (inactive)
- GI50 (OVCAR-8): > 100 µM (inactive)
- GI50 (U-251): > 100 µM (inactive)
- GI50 (A498): > 100 µM (inactive)
- GI50 (OVCAR-3): > 100 µM (inactive)
- GI50 (MDA-MB-231): > 100 µM (inactive)
- GI50 (MDA-N): > 100 µM (inactive)
- GI50 (IGROV-1): > 100 µM (inactive)
- GI50 (HL-60): > 100 µM (inactive)
- GI50 (ACHN): > 100 µM (inactive)
- GI50 (T47D): > 100 µM (inactive)
- GI50 (HOP-62): > 100 µM (inactive)
- GI50 (NCI-H522): > 100 µM (inactive)
- GI50 (CAKI-1): > 100 µM (inactive)
